Measurements as given in patent publication US20030130308A1, “Drugs for spinal anesthesia” (priority 2001, published 2003).
Entries after “also recorded” stand apart in the source; their conditions may differ. Where a name gives a salt, the structure may show the parent alone.

Assays:
rats [1] = experiment: Overall sensory and motor blockade of the hindlimbs after intrathecal injection; assay type: in vivo; settings: rat
Experimental: (§1) Rats were tested before 15 minutes through 240 minutes after intrathecal injection of 5 nmoles (in 10 μl) of 6-[2-(1(2)H-tetrazole-5-yl)ethyl]decahydroisoquinolone-3-carboxylic acid. Sensory function was tested at the hindpaw using withdrawal response to pinprick and withdrawal to pinch with a sharp forceps. Motor performance (ambulation, the placing reflex and Rotarod time), blood pressure and heart rate was also evaluated. Some tests were repeated the next day. Responses after 6-[2-(1(2)H-tetrazole-5-yl)ethyl]decahydroisoquinolone-3-carboxylic acid were compared to injection of 40 μl of bupivacaine, 0.75%. Pinprick responses at the forepaw, chest, abdomen, hindleg and hindpaw were also examined after intrathecal 6-[2-(1(2)H-tetrazole-5-yl)ethyl]decahydroisoquinolone-3-carboxylic acid.
(§2) Rats were anesthetized with halothane. The lumbar region was shaved, prepared with povidone-iodine, made kyphotic and incised 2 to 3 cm longitudinally in the midline at the level of the iliac crests. The space between the 5th and 6th lumbar vertebrae was punctured with 23G hypodermic needle and a 32G PU catheter (10 cm length, OD 0.0107 inches and ID 0.005 inches) reinforced with a Teflon coated stainless steel stylet (0.003 inches) was advanced through the needle cranially. The needle and the stylet were removed and the catheter withdrawn so that 6.5-7 cm extended outside of the lumbar masculature. The catheter was fixed to the fascia, sutured, inserted into an 8 cm length of PE-10 tubing and secured with glue covered with epoxy. The catheter was tunneled under the skin to the cervical region, flushed with saline and sealed with a cautery pen. The dead space of the catheter was 4.5 to 5 μl. The skin was closed and the rat was allowed to recover from anesthesia for 2-3 days.
(§3) The dose and volume of drugs injected intrathecally were determined from the dose required to produce hindlimb sensory and motor loss in preliminary experiments. Bupivacaine HCl (0.75% in 8.25% dextrose for spinal injection) was purchased from Abbott Laboratories (Chicago, Ill.). The intrathecal injection volume was 40 μl. The compound was dissolved in 10% dextrose and water. The injection volume was 1 ul. All intrathecal drug injections were followed by a flush of 10 μl preservative-free saline.

rats [2] = experiment: Rotarod performance after intrathecal injection; assay type: in vivo; settings: rat; for Rotarod Time: mean ± SD
Experimental: as §1, §2
Rats were trained over a two-day period. Training began by placing the rat on a Rotarod (Stoelting, Wood Dale, Ill.) that was fixed for three minutes. Then, three series of trials separated by 2-3 hours were performed. During each trial, the rat was placed on the Rotarod accelerating for the first 20 s then at a constant rate of approximately 5 rpm, until a 180 s cut off time. If the rat fell at any time during the initial trial, the trial was repeated. Each rat was allowed three attempts per trial. On the second day, the same procedure was repeated, though acceleration was sustained for 120 s to approximately 12 rpm, with a 150 second cut off time. On day 3, the test day, rats are again placed on the Rotarod and accelerated for 120 seconds to 12 rpm with the cutoff time of 150 seconds. Each rat was permitted 4 attempts at 15 minute intervals. Those successful in 2 of the 4 attempts continued in the protocol, and the average of the 4 attempts was considered the baseline (pre). […] Then the placing reflex was tested. Rats were placed on a table and the dorsum of either hindpaw was drawn across the edge of the table; this elicits a lifting of the paw onto the surface of the table (2=normal; 1=delay of 1-2 sec.; 0=more than 2 sec.). This test was performed 3 times for each hindlimb after each ambulation test. The sum of the three trials on both paws were recorded (1-12).
as §3

[3] = local infiltration of the drug in the incision; previously reported by this inventor; cited from earlier work
rats [4] = experiment: Withdrawal response to pinprick after infiltration into the left hind paw; assay type: in vivo; settings: rat
Experimental: Withdrawal response to pinprick were also tested before and after infiltration of (50 nmoles in 100 μl) of 6-[2-(1(2)H-tetrazole-5-yl)ethyl]decahydroisoquinolone-3-carboxylic acid into the left hind paw (n=5). Responses were recorded before injection of 6-[2-(1(2)H-tetrazole-5-yl)ethyl]decahydroisoquinolone-3-carboxylic acid and at 15, 30 and 60 minutes after injection. This test was not blinded.

rats [5] = experiment: Segmental pinprick testing at hindpaw, hindleg, abdomen, chest and forepaw after intrathecal injection; assay type: in vivo; settings: rat
Experimental: as §1
In a separate group of rats (n=5), the response to pinprick was tested once on the left hindpaw, the left hindleg, the lower abdomen, the chest and the left forepaw in rats injected with intrathecal 6-[2-(1(2)H-tetrazole-5-yl)ethyl]decahydroisoquinolone-3-carboxylic acid. Withdrawal, muscle contraction, or attempted escape reaction to pinprick was considered a positive test whereas their absence was considered a negative response. This test was not blinded.

[6] = bupivacaine 0.75% 40 μl intrathecal

SMILES: CCCCN1CCCCC1C(=O)Nc1c(C)cccc1C (centres unmarked) [Bupivacaine, Bupivacaine HCl]
- sensory and motor responses (rats [1]; [6]): decreased
- Rotarod Time (rats [2]; Bupivacaine 0.75% 40 μl IT, n=8, 15 min): 5 ± 6 s
- Rotarod Time (rats [2]; Bupivacaine 0.75% 40 μl IT, n=8, 30 min): 49 ± 42 s
- Rotarod Time (rats [2]; Bupivacaine 0.75% 40 μl IT, n=8, 60 min): 135 ± 43 s
- Rotarod Time (rats [2]; Bupivacaine 0.75% 40 μl IT, n=8, 90 min): 136 ± 39 s
- Rotarod Time (rats [2]; Bupivacaine 0.75% 40 μl IT, n=8, 120 min): 137 ± 26 s
- Rotarod Time (rats [2]; Bupivacaine 0.75% 40 μl IT, n=8, 180 min): 142 ± 15 s
- Rotarod Time (rats [2]; Bupivacaine 0.75% 40 μl IT, n=8, 240 min): 149 ± 2 s
- Rotarod Time (rats [2]; Bupivacaine 0.75% 40 μl IT, n=8, 24 hrs): 150 ± 0 s
- Rotarod Time (rats [2]; Bupivacaine 0.75% 40 μl IT, n=8, Pre (before drug injection)): 146 ± 8 s
- rotorod performance decreased for (P<0.05 vs Pre) (rats [2]; [6]): 30 min

SMILES: O=C(O)C1CC2CC(CCc3nnn[nH]3)CCC2CN1 (centres unmarked) [LY293558, 6-[2-(1(2)H-tetrazole-5-yl)ethyl]decahydroisoquinolone-3-carboxylic acid]
- effect on pain after incision [3]: no effect
- effects compared with bupivacaine (rats [1]; 5 nmoles intrathecal vs bupivacaine 0.75% 40 μl): more pronounced and sustained than bupivacaine; also recorded: more pronounced and prolonged
- greater motor deficits than bupivacaine (P<0.05) in all tests of motor function, through (rats [1]; 5 nmoles intrathecal vs bupivacaine, from 30 minutes): 3 h
- sensory and motor blockade of the hindlimbs (rats [1]; 5 nmoles intrathecal): reversible, sustained sensory and motor blockade
- sensory and motor responses blocked through (rats [1]; 5 nmoles intrathecal): 180 min
- recovery of sensory and motor responses the following day (rats [1]; 5 nmoles intrathecal, following day): complete recovery
- change in withdrawal response to pinprick from baseline (rats [4]; 50 nmoles in 100 μl infiltrated into the hind paw, n=5): no change; also recorded: did not affect
- rats withdrawing to pinprick (rats [4]; 50 nmoles in 100 μl into the hind paw, n=5, at 15, 30 and 60 minutes): All five rats withdrew
- segmental blockade of the response to pinprick (rats [5]; 5 nmoles intrathecal): present
- evidence of sensory block of the forelimb (rats [5]; intrathecal, n=5, not blinded): in only one test at 15 minutes
- sensation to pinprick blocked below the chest in all rats through (rats [5]; intrathecal, n=5, not blinded): 90 min
- sensation to pinprick blocked in the hindlimb through (rats [5]; intrathecal, n=5, not blinded): 120 min
- Rotorod performance decreased through (P<0.05 vs Pre) (rats [2]; 5 nmoles intrathecal): 4 h
- recovery of Rotorod performance the next day (rats [2]; 5 nmoles intrathecal, next day): full recovery
- Rotarod Time (rats [2]; LY293558 5 nmoles IT, n=8, 15 min): 3 ± 4 s
- Rotarod Time (rats [2]; LY293558 5 nmoles IT, n=8, 240 min): 115 ± 42 s
- Rotarod Time (rats [2]; LY293558 5 nmoles IT, n=8, 24 hrs): 149 ± 5 s
- Rotarod Time (rats [2]; LY293558 5 nmoles IT, n=8, Pre (before drug injection)): 144 ± 10 s
